The target in one data set is T1, ME1 (Mus musculus, UniProt P06801).
T1 construct: from tissue; host or cells: mouse lung tissue (normoxia mice, lysate after intraperitoneal dosing)
T1 sequence (P06801 1-572): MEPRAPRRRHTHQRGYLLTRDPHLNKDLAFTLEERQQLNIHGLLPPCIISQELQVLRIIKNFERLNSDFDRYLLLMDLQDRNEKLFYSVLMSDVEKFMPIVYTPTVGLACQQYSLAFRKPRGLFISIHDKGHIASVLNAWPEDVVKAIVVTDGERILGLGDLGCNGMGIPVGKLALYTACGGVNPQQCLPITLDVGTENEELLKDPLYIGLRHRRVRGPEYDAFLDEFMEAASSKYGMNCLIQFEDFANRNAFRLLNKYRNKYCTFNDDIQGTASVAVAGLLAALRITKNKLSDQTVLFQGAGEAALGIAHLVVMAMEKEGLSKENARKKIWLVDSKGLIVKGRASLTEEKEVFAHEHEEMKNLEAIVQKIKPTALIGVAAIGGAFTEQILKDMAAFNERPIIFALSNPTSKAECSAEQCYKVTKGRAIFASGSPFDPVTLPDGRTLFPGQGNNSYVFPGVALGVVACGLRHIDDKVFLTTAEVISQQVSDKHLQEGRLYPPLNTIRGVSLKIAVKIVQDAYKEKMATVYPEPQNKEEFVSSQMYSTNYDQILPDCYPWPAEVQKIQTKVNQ
The data set is described as follows: Dose-finding: inhibition of ME1 enzymatic activity in lung tissue of normoxia mice after single intraperitoneal injection. In kind it is in vivo. The following applies: dose greater than or equal to 100 mg/kg (doses tested 1, 10, 100, 200, 500 mg/kg). How it is done:
Histone supernatants or mitochondrial extracts were used to detect ME1 enzymatic activity. (1) Liquid preparation: an ME1 reaction buffer (pH=7.4) was prepared from 67 mM triethanolamine and 5.0 mM manganese chloride. (2) Sample preparation: a protein lysate was centrifuged at 13,000 rpm for 15 min at 4° C. (3) Adding samples: a reaction system included ME1 reaction buffer+L-malic acid (3.3 mM)+β-NADP^+ (0.3 mM)+protein lysate, with a total volume of 150 μL. (4) Reading was done with a multi-functional microplate reader, at a reading temperature maintained at 37° C., and an absorbance value was monitored at a wavelength of 340 nm every 50 s for a total of 30 min. (5) The protein concentration was determined for standardization. (6) The change of absorbance per mg of protein per unit time was calculated. In the present disclosure, normoxia mice are intraperitoneally injected with ME1*, at single injection doses of 1, 10, 100, 200, and 500 mg/kg, respectively, to explore the inhibitory effect of ME1* on the enzymatic activity of ME1 in mouse lung tissues.

A further data set has as its system SuHx-induced PH mice. The data set is described as follows: Preventive treatment of SuHx-induced PH mice. The following applies: compared with vehicle. It counts as in vivo, mouse. Here is the method: 8 to 10 week-old SPF-grade C57BL/6J male mice weighing 25 g to 30 g were fed in a hypoxia chamber (an oxygen concentration in the chamber was maintained at 10%) while receiving weekly subcutaneous injections of 20 mg/kg of SU5416 for 0 weeks (n=8), 1 week (n=8), 2 weeks (n=8), and 3 weeks (n=8). The mouse lung tissues were collected and assessed for RVSP and RVHI and analyzed for PAMT.
The RVSP can be used to evaluate a pulmonary artery pressure (PAP) of the mouse, and the RVHI can reflect the right ventricular involvement and right ventricular hypertrophy of the mouse due to excessive PVR. The specific operation steps were as follows: (1) After anesthetized with 2% pentobarbital sodium (50 mg/kg by intraperitoneal injection), the mice were fixed on an operating board. (2) Power Lab was started and then connected to a pressure transducer. (3) The skin of the anterior chest wall of the mouse was cut with surgical scissors to clearly expose the position of manubrium sternum. (4) A 22-gauge needle was inserted into the right ventricle (RV) at 45° along an intersection point of the manubrium sternum and the left costal margin through the closed chest, and a position of the needle tip in the heart cavity was determined by the waveform; a stable RVSP waveform was saved and an RVSP measured value were recorded through Chart program. (5) The mice were sacrificed to obtain the heart; excess connective tissue and appendages in the heart were removed, and a free wall of the right ventricle was cut; the right ventricle, left ventricle, and interventricular septum (Left ventricular+septum, LV+S) were weighed to calculate RVHI=RV/LV+S.
PAMT is used to analyze the morphological changes of pulmonary vessels. In the present disclosure, a primary antibody of α-smooth muscle actin (α-SMA), a surface marker of pulmonary vascular smooth muscle cells, was stained by immunohistochemistry, and then a percentage of PAMT was calculated to evaluate the pulmonary vascular remodeling of PH mice. […] After deparaffinized and antigen retrieval (a pH of citric acid buffer was 6.0), the section was incubated with a primary antibody against α-SMA at 4° C. overnight, and then incubated with a horseradish peroxidase-bound secondary antibody. After counterstained with hematoxylin, cell nuclei were rinsed with tap water and differentiated with 0.5% […], soaked in tap water for 15 min, routinely dehydrated, subjected to transparent treatment, sealed with glycerogelatin and photographed. Statistical analysis: pulmonary vessel thickness was measured with a diameter of (0-50) μm and (50-100) μm. At least 20 vessels with a diameter of (0-50) μm and at least 15 vessels with a diameter of (50-100) μm were assessed per mouse, and the PAMT percentage was calculated as: (outer circumference/2π-inner circumference/2π)/(outer circumference/2π)×100.
Echocardiography was conducted using a Vevo 2100 ultrasound imaging platform to evaluate the dynamic changes of blood flow in the right heart of PH mice. (1) The mice were depilated to fully expose the skin on the chest wall. (2) The mice were placed on a constant-temperature heating plate at 37° C., anesthetized with 3.0% isoflurane through the nose and mouth, and the inhalation was continued with 1.5% isoflurane after the mice were anesthetized. (3) The mice were smeared with a small amount of coupling agent on their limbs and the limbs were fixed, and dynamic changes of the body temperature, heart rate, respiration rate, and electrocardiogram for mice were continuously recorded, while ensuring that the mice were in a resting state. (4) The ultrasound probe was placed, an appropriate amount of coupling agent was added, the pulmonary artery acceleration time (PAAT), pulmonary artery ejection time (PAET), and velocity-time integral were determined at a short-axis position, and then obtained frequency spectrum was saved and added with color ultrasound. […]

Data set [1] is described as follows: Safety evaluation of preventive treatment (body weight, HE staining of organs). It counts as in vivo, mouse. The following applies: 100 mg/kg intraperitoneally once a day. How it is done:
Male SPF-grade C57BL/6J mice aged 8 to 10 weeks with a body weight of 25 g to 30 g were randomly divided into the following 4 groups: • (1) Normoxia+vehicle control group: 6 mice were fed in a normoxia environment for 3 weeks; from the second week, the mice were intraperitoneally injected with vehicle (100 mg/kg) once a day, for a total of 14 injections. • (2) Normoxia+ME1* treatment group: 6 mice were fed in a normoxia environment for 3 weeks; from the second week, the mice were intraperitoneally injected with ME1* (100 mg/kg) once a day, for a total of 14 injections. • (3) SuHx modeling+vehicle control group: 10 mice were treated with SuHx for 3 weeks (SuHx modeling method was the same as above); from the second week, the mice were intraperitoneally injected with vehicle (100 mg/kg) once a day, for a total of 14 injections. • (4) SuHx modeling+ME1* treatment group: 10 mice were treated with SuHx for 3 weeks; from the second week, the mice were intraperitoneally injected with ME1* (100 mg/kg) once a day, for a total of 14 injections. […]

Setting [2] is: 100 mg/kg intraperitoneally once a day, 14 injections.
Where [3] appears, read: echocardiography, 100 mg/kg intraperitoneally once a day.

`O=C1CC(N2CCN(c3ccc(O)cc3)CC2)C(=O)N1c1ccccc1` (stereo not drawn) [ME1*]: the “enzymatic activity of ME1 in mouse lung tissue” value at ME1 is reported as “significantly inhibited”. Besides, the “progression of PH” value in the data set with SuHx-induced PH mice (100 mg/kg intraperitoneally once a day from second week, 14 injections) was “significantly slowed”. Also, in the data set on SuHx-induced PH mice (setting [2]), the “RVHI (%)” value is reported as “significantly lower” and the RVSP result was “significantly lower”. Moreover, in the data set with SuHx-induced PH mice (setting [3]), the “PA AT/ET” value is “significantly higher” and the TAPSE result is recorded as “significantly higher”. Besides, the PAMT percentage result with SuHx-induced PH mice (pulmonary artery diameters 0-50 μm and 50-100 μm, 100 mg/kg intraperitoneally once a day) is listed as “significantly lower”. For the same compound, the “tissue and organ damage (HE staining of lung, heart, liver, spleen, kidney, small intestine)” value in data set [1] (after the treatment, 14 injections) was “no obvious tissue and organ damage”. Further, the “body weight of the mice” value in data set [1] (weighed every week, compared with vehicle group) was “not significantly reduced”.

Source of the values: patent publication US12558352B2, “Use of malic enzyme 1 (ME1) in preparation of drug for preventing and treating pulmonary hypertension (PH)” (Institute of Basic Medical Sciences, CAMS, priority 2022, dated 2026).
